Data reported in US12723063B2, “GIPR-agonist compounds” (Eli Lilly and Company, priority 2019, dated 2026).
*1 amine or outer side, *2 acyl side, *3 side chain or, on linkers, in order; H or OH if unused. Where a SMILES comes first, the peptide text is derived from it. Side-chain parts run from the residue outwards. [ ]: non-standard residue; d: D form. The star is where a group is joined. C20 diacid = O=C(O)CCCCCCCCCCCCCCCCCCC(=O)*; C18 diacid = O=C(O)CCCCCCCCCCCCCCCCC(=O)*; αMePhe(2-F) = C[C@](N)(Cc1ccccc1F)C(=O)O; γGlu = O=C(O)[C@H](CCC(=O)[*:2])N[*:1]; 4Pal = N[C@@H](Cc1ccncc1)C(=O)O; αMeL = CC(C)C[C@](C)(N)C(=O)O; Iva = CC[C@](C)(N)C(=O)O; AEEA = NCCOCCOCC(=O)O; Aib = CC(C)(N)C(=O)O

What follows are compounds tested against T1, human GIPR (Homo sapiens, UniProt P48546) (assay: [125I]-GIP binding, SPA with WGA beads, 0.1% bacitracin). Conditions: geometric mean, read-out: hGIPR Ki.
T1 construct: expressed in transfected cells; crude membranes
T1 sequence (P48546 22-466): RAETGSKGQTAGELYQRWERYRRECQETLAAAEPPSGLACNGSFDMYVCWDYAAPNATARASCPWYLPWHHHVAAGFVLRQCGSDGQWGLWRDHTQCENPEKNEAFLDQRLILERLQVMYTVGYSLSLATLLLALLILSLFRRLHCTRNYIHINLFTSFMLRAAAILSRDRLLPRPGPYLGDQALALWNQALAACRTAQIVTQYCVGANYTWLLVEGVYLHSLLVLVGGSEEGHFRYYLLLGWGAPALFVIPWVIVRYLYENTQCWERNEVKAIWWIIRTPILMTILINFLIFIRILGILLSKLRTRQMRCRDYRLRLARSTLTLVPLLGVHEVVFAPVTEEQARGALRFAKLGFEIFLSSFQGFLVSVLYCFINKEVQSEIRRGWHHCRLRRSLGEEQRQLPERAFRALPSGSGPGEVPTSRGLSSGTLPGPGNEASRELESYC
Procedure, shortened: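 Ki values are geometric means (SEM, n independent days), derived from four-parameter nonlinear regression of IC50. Membranes came from hGIPR-expressing CHO cells.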
Work on CC[C@H](C)[C@H](NC(=O)[C@H](CO)NC(=O)[C@H](Cc1ccc(O)cc1)NC(=O)[C@H](CC(=O)O)NC(=O)[C@H](CO)NC(=O)[C@@H](NC(=O)[C@](C)(Cc1ccccc1F)NC(=O)[C@@H](NC(=O)CNC(=O)[C@H](CCC(=O)O)NC(=O)C(C)(C)NC(=O)[C@@H](N)Cc1ccc(O)cc1)[C@@H](C)O)[C@@H](C)CC)C(=O)N[C@@H](C)C(=O)N[C@@H](CC(C)C)C(=O)N[C@@H](CC(=O)O)C(=O)N[C@@H](CCCCN)C(=O)N[C@@H](CCCCNC(=O)COCCOCCNC(=O)COCCOCCNC(=O)CC[C@H](NC(=O)CCCCCCCCCCCCCCCCCCC(=O)O)C(=O)O)C(=O)N[C@@H](Cc1c[nH]cn1)C(=O)N[C@@H](CCC(N)=O)C(=O)NC(C)(C)C(=O)N[C@@H](CCC(=O)O)C(=O)N[C@@H](Cc1ccccc1)C(=O)N[C@H](C(=O)N[C@@H](CC(N)=O)C(=O)N[C@@H](Cc1ccc(O)cc1)C(=O)N[C@@H](CC(C)C)C(=O)N[C@@H](CC(C)C)C(=O)N[C@@H](C)C(=O)N[C@H](C(=O)NCC(=O)N1CCC[C@H]1C(=O)N[C@@H](CO)C(=O)N[C@@H](CO)C(=O)NCC(=O)N[C@@H](C)C(=O)N1CCC[C@H]1C(=O)N1CCC[C@H]1C(=O)N1CCC[C@H]1C(=O)N[C@@H](CO)C(N)=O)[C@@H](C)O)C(C)C [Example 34] (H-Y[Aib]EGT[αMePhe(2-F)]ISDYSIALDKK([AEEA-AEEA-γGlu-C20 diacid])HQ[Aib]EFVNYLLATGPSSGAPPPS-NH2) yielded a Ki of 34 pM. Work on CC[C@H](C)[C@H](NC(=O)[C@H](Cc1ccccc1)NC(=O)[C@@H](NC(=O)CNC(=O)[C@H](CCC(=O)O)NC(=O)C(C)(C)NC(=O)[C@@H](N)Cc1ccc(O)cc1)[C@@H](C)O)C(=O)N[C@@H](CO)C(=O)N[C@@H](CC(=O)O)C(=O)N[C@@H](Cc1ccc(O)cc1)C(=O)N[C@@H](CO)C(=O)N[C@H](C(=O)N[C@@](C)(CC(C)C)C(=O)N[C@@H](CC(C)C)C(=O)N[C@@H](CC(=O)O)C(=O)N[C@@H](CCCCN)C(=O)N[C@@H](CCCCNC(=O)COCCOCCNC(=O)COCCOCCNC(=O)CC[C@H](NC(=O)CCCCCCCCCCCCCCCCCCC(=O)O)C(=O)O)C(=O)N[C@@H](Cc1c[nH]cn1)C(=O)N[C@@H](CCC(N)=O)C(=O)NC(C)(C)C(=O)N[C@@H](CCC(=O)O)C(=O)N[C@@H](Cc1ccccc1)C(=O)N[C@H](C(=O)N[C@@H](CCC(=O)O)C(=O)N[C@@H](Cc1ccncc1)C(=O)N[C@@H](CC(C)C)C(=O)N[C@@H](CC(C)C)C(=O)N[C@@H](C)C(=O)N[C@H](C(=O)NCC(=O)N1CCC[C@H]1C(=O)N[C@@H](CO)C(=O)N[C@@H](CO)C(=O)NCC(=O)N[C@@H](C)C(=O)N1CCC[C@H]1C(=O)N1CCC[C@H]1C(=O)N1CCC[C@H]1C(=O)N[C@@H](CO)C(N)=O)[C@@H](C)O)C(C)C)[C@@H](C)CC [Example 58] (H-Y[Aib]EGTFISDYSI[αMeL]LDKK([AEEA-AEEA-γGlu-C20 diacid])HQ[Aib]EFVE[4Pal]LLATGPSSGAPPPS-NH2) yielded a Ki of 32.4 pM. CC[C@H](C)[C@H](NC(=O)[C@H](Cc1ccccc1)NC(=O)[C@@H](NC(=O)CNC(=O)[C@H](CCC(=O)O)NC(=O)C(C)(C)NC(=O)[C@@H](N)Cc1ccc(O)cc1)[C@@H](C)O)C(=O)N[C@@H](CO)C(=O)N[C@@H](CC(=O)O)C(=O)N[C@@H](Cc1ccc(O)cc1)C(=O)N[C@@H](CO)C(=O)N[C@H](C(=O)N[C@@](C)(CC(C)C)C(=O)N[C@@H](CC(C)C)C(=O)N[C@@H](CC(=O)O)C(=O)N[C@@H](CCCCN)C(=O)N[C@@H](CCCCNC(=O)COCCOCCNC(=O)COCCOCCNC(=O)CC[C@H](NC(=O)CCCCCCCCCCCCCCCCCCC(=O)O)C(=O)O)C(=O)N[C@@H](Cc1c[nH]cn1)C(=O)N[C@@H](CCC(N)=O)C(=O)NC(C)(C)C(=O)N[C@@H](CC(=O)O)C(=O)N[C@@H](Cc1ccccc1)C(=O)N[C@H](C(=O)N[C@@H](CCC(=O)O)C(=O)N[C@@H](Cc1ccc(O)cc1)C(=O)N[C@@H](CC(C)C)C(=O)N[C@@H](CC(C)C)C(=O)N[C@@H](C)C(=O)NCC(=O)NCC(=O)N1CCC[C@H]1C(=O)N[C@@H](CO)C(=O)N[C@@H](CO)C(=O)NCC(=O)N[C@@H](C)C(=O)N1CCC[C@H]1C(=O)N1CCC[C@H]1C(=O)N1CCC[C@H]1C(=O)N[C@@H](CO)C(N)=O)C(C)C)[C@@H](C)CC [Example 53] (H-Y[Aib]EGTFISDYSI[αMeL]LDKK([AEEA-AEEA-γGlu-C20 diacid])HQ[Aib]DFVEYLLAGGPSSGAPPPS-NH2) was tested, and the Ki was 18.4 pM. CC[C@H](C)[C@H](NC(=O)[C@H](Cc1ccccc1)NC(=O)[C@@H](NC(=O)CNC(=O)[C@H](CCC(=O)O)NC(=O)C(C)(C)NC(=O)[C@@H](N)Cc1ccc(O)cc1)[C@@H](C)O)C(=O)N[C@@H](CO)C(=O)N[C@@H](CC(=O)O)C(=O)N[C@@H](Cc1ccc(O)cc1)C(=O)N[C@@H](CO)C(=O)N[C@H](C(=O)N[C@@](C)(CC(C)C)C(=O)N[C@@H](CC(C)C)C(=O)N[C@@H](CC(=O)O)C(=O)N[C@@H](CCCCN)C(=O)N[C@@H](CCCCNC(=O)COCCOCCNC(=O)COCCOCCNC(=O)CC[C@H](NC(=O)CCCCCCCCCCCCCCCCCCC(=O)O)C(=O)O)C(=O)N[C@@H](Cc1c[nH]cn1)C(=O)N[C@@H](CCC(N)=O)C(=O)NC(C)(C)C(=O)N[C@@H](CC(=O)O)C(=O)N[C@@H](Cc1ccccc1)C(=O)N[C@H](C(=O)N[C@@H](CCC(=O)O)C(=O)N[C@@H](Cc1ccncc1)C(=O)N[C@@H](CC(C)C)C(=O)N[C@@H](CC(C)C)C(=O)N[C@@H](C)C(=O)NCC(=O)NCC(=O)N1CCC[C@H]1C(=O)N[C@@H](CO)C(=O)N[C@@H](CO)C(=O)NCC(=O)N[C@@H](C)C(=O)N1CCC[C@H]1C(=O)N1CCC[C@H]1C(=O)N1CCC[C@H]1C(=O)N[C@@H](CO)C(N)=O)C(C)C)[C@@H](C)CC [Example 48] was tested, and the Ki was 49.8 pM. CC[C@H](C)[C@H](NC(=O)[C@H](CO)NC(=O)[C@H](Cc1ccc(O)cc1)NC(=O)[C@H](CC(=O)O)NC(=O)[C@H](CO)NC(=O)[C@@H](NC(=O)[C@](C)(CC)NC(=O)[C@@H](NC(=O)CNC(=O)[C@H](CCC(=O)O)NC(=O)C(C)(C)NC(=O)[C@@H](N)Cc1ccc(O)cc1)[C@@H](C)O)[C@@H](C)CC)C(=O)N[C@@](C)(CC(C)C)C(=O)N[C@@H](CC(C)C)C(=O)N[C@@H](CC(=O)O)C(=O)N[C@@H](CCCCN)C(=O)N[C@@H](CCCCNC(=O)COCCOCCNC(=O)COCCOCCNC(=O)CC[C@H](NC(=O)CCCCCCCCCCCCCCCCCCC(=O)O)C(=O)O)C(=O)N[C@@H](Cc1c[nH]cn1)C(=O)N[C@@H](CCC(N)=O)C(=O)NC(C)(C)C(=O)N[C@@H](CC(=O)O)C(=O)N[C@@H](Cc1ccccc1)C(=O)N[C@H](C(=O)N[C@@H](CCC(=O)O)C(=O)N[C@@H](Cc1ccncc1)C(=O)N[C@@H](CC(C)C)C(=O)N[C@@H](CC(C)C)C(=O)N[C@@H](C)C(=O)NCC(=O)NCC(=O)N1CCC[C@H]1C(=O)N[C@@H](CO)C(=O)N[C@@H](CO)C(=O)NCC(=O)N[C@@H](C)C(=O)N1CCC[C@H]1C(=O)N1CCC[C@H]1C(=O)N1CCC[C@H]1C(=O)N[C@@H](CO)C(N)=O)C(C)C [Example 55] (H-Y[Aib]EGT[Iva]ISDYSI[αMeL]LDKK([AEEA-AEEA-γGlu-C20 diacid])HQ[Aib]DFVE[4Pal]LLAGGPSSGAPPPS-NH2) showed a Ki of 33.1 pM. CC[C@H](C)[C@H](NC(=O)[C@H](CO)NC(=O)[C@H](Cc1ccc(O)cc1)NC(=O)[C@H](CC(=O)O)NC(=O)[C@H](CO)NC(=O)[C@@H](NC(=O)[C@H](CC(C)C)NC(=O)[C@@H](NC(=O)CNC(=O)[C@H](CCC(=O)O)NC(=O)[C@@H](C)NC(=O)[C@@H](N)Cc1ccc(O)cc1)[C@@H](C)O)[C@@H](C)CC)C(=O)N[C@@H](CC(C)C)C(=O)N[C@@H](CC(C)C)C(=O)N[C@@H](CC(=O)O)C(=O)N[C@@H](CCCCN)C(=O)N[C@@H](CCCCNC(=O)COCCOCCNC(=O)COCCOCCNC(=O)CC[C@H](NC(=O)CCCCCCCCCCCCCCCCC(=O)O)C(=O)O)C(=O)N[C@@H](C)C(=O)N[C@@H](CCC(N)=O)C(=O)NC(C)(C)C(=O)N[C@@H](CC(=O)O)C(=O)N[C@@H](Cc1ccccc1)C(=O)N[C@H](C(=O)N[C@@H](CC(N)=O)C(=O)N[C@@H](Cc1c[nH]c2ccccc12)C(=O)N[C@@H](CC(C)C)C(=O)N[C@@H](CC(C)C)C(=O)N[C@@H](C)C(=O)N[C@@H](CCC(N)=O)C(=O)NCC(=O)N1CCC[C@H]1C(=O)N[C@@H](CO)C(=O)N[C@@H](CO)C(=O)NCC(=O)N[C@@H](C)C(=O)N1CCC[C@H]1C(=O)N1CCC[C@H]1C(=O)N1CCC[C@H]1C(=O)N[C@@H](CO)C(N)=O)C(C)C [Example 32] (H-Y[dA]EGTLISDYSILLDKK([AEEA-AEEA-γGlu-C18 diacid])AQ[Aib]DFVNWLLAQGPSSGAPPPS-NH2) showed a Ki of 34.3 pM. Compound CC[C@H](C)[C@H](NC(=O)[C@H](Cc1ccccc1)NC(=O)[C@@H](NC(=O)CNC(=O)[C@H](CCC(=O)O)NC(=O)C(C)(C)NC(=O)[C@@H](N)Cc1ccc(O)cc1)[C@@H](C)O)C(=O)N[C@@H](CO)C(=O)N[C@@H](CC(=O)O)C(=O)N[C@@H](Cc1ccc(O)cc1)C(=O)N[C@@H](CO)C(=O)N[C@H](C(=O)N[C@@](C)(CC(C)C)C(=O)N[C@@H](CC(C)C)C(=O)N[C@@H](CC(=O)O)C(=O)N[C@@H](CCCCN)C(=O)N[C@@H](CCCCNC(=O)COCCOCCNC(=O)COCCOCCNC(=O)CC[C@H](NC(=O)CCCCCCCCCCCCCCCCCCC(=O)O)C(=O)O)C(=O)N[C@@H](Cc1c[nH]cn1)C(=O)N[C@@H](CCC(N)=O)C(=O)NC(C)(C)C(=O)N[C@@H](CCC(=O)O)C(=O)N[C@@H](Cc1ccccc1)C(=O)N[C@H](C(=O)N[C@@H](CCC(=O)O)C(=O)N[C@@H](Cc1ccc(O)cc1)C(=O)N[C@@H](CC(C)C)C(=O)N[C@@H](CC(C)C)C(=O)N[C@@H](CCC(=O)O)C(=O)N[C@@H](CCC(N)=O)C(=O)NCC(=O)N1CCC[C@H]1C(=O)N[C@@H](CO)C(=O)N[C@@H](CO)C(=O)NCC(=O)N[C@@H](C)C(=O)N1CCC[C@H]1C(=O)N1CCC[C@H]1C(=O)N1CCC[C@H]1C(=O)N[C@@H](CO)C(N)=O)C(C)C)[C@@H](C)CC [Example 63] (H-Y[Aib]EGTFISDYSI[αMeL]LDKK([AEEA-AEEA-γGlu-C20 diacid])HQ[Aib]EFVEYLLEQGPSSGAPPPS-NH2) has a Ki of 24.8 pM.
